Measured values taken from ChEMBL document CHEMBL1201862, “PubChem BioAssay data set” (2004).
Activity calls are given as the source filed them.

Tests used:
[1] = HepG2 cell cytotoxicity, dose response, cytotoxicity control for Shn3 inhibitor project, CellTiter-Glo, cherry-picked (AID 624134); assay type: functional, cell-based
[2] = molecular target: T1, Latent membrane protein 1 (Human herpesvirus 4 (strain B95-8), UniProt P03230); assay: TES1-eGFP NF-kB reporter inhibition versus Tet-On dsRED, dose response, selectivity assay for LMP1 NF-kB inhibitor project, imaging, HEK293T, dual-color eGFP/dsRED, cherry-picks (AID 588398); assay type: functional, cell-based
T1 sequence (P03230 whole entry): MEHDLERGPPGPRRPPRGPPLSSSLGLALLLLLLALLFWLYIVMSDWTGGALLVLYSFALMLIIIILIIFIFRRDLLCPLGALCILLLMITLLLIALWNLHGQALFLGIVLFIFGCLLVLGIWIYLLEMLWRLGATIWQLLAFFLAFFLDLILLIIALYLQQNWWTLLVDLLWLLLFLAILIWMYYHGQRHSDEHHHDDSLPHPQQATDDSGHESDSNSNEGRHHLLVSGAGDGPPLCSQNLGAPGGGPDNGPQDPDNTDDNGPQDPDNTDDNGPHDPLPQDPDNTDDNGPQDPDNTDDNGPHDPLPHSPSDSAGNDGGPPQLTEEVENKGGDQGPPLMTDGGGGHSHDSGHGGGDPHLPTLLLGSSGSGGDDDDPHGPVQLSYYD

[3] = test system: Vero; assay: cells; assay type: functional; settings: Chlorocebus sabaeus
[4] = test system: HEK293; assay: inhibitors of LMP1-driven NF-kB reporter, dose response, cell-based, HEK293, luciferase, cherry-pick (AID 588343); assay type: functional; settings: Homo sapiens
[5] = control 3'UTR Renilla luciferase suppression, dose response, counter-screen for Shn3 inhibitor project, cell-based, Clone20-Shn3RL, cherry-picked (AID 624133); assay type: functional
[6] = C. albicans growth with fluconazole, confirmation, fluorescence, retest (AID 2467); assay type: functional, cell-based
[7] = NIH-3T3 fibroblast cytotoxicity, dose response, cytotoxicity control, cell-based, fluorescence, Alamar Blue, secondary assay (AID 2327); assay type: functional;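 also: NIH-3T3 mouse fibroblasts cultured with fluconazole at 8 µg/mL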
[8] = Shn3 3'UTR reporter inhibitors, dose response, cell-based, Clone20 osteoblasts, firefly luciferase, cherry-picked (AID 624132); assay type: functional;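 also: firefly luciferase luminescence from reporter carrying the Shn3 3'UTR in osteoblasts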
[9] = molecular target: T2, Apoptotic protease-activating factor 1 (Homo sapiens, UniProt O14727); assay type: functional
T2 sequence (O14727 whole entry): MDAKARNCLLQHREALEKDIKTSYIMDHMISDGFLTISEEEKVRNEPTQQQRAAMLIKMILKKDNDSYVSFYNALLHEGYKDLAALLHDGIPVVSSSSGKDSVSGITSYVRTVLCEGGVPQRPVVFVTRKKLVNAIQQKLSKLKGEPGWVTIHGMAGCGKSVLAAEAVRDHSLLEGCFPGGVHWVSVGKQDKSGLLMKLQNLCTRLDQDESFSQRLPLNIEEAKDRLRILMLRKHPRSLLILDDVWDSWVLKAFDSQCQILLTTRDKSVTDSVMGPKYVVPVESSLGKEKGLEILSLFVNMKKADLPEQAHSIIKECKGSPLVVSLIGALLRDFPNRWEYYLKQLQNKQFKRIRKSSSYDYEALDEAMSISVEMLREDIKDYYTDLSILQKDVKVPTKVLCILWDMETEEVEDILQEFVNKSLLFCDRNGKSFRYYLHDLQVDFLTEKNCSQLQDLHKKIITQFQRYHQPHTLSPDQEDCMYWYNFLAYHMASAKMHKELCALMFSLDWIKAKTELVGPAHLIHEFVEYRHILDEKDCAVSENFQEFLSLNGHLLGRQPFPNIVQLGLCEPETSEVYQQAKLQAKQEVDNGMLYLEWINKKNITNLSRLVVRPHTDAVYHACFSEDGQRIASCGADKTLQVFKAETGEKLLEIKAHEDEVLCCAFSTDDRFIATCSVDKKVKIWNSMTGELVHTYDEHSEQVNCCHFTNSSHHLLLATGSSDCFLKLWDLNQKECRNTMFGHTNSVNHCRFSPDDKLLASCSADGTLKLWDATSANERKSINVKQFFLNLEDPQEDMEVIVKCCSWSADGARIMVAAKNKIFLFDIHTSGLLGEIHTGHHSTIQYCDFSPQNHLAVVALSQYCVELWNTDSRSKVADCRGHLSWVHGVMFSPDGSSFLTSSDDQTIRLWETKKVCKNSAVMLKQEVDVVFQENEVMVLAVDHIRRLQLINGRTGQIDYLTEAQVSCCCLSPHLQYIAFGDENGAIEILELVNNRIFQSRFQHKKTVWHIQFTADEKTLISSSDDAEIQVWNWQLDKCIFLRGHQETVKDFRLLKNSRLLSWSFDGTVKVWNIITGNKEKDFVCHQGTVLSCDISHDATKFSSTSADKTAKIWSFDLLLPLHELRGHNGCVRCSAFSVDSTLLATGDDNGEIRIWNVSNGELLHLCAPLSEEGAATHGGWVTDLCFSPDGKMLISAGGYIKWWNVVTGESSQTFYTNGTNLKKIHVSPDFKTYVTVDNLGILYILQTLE

[10] = molecular target: Ras and Rab interactor 1/Tyrosine-protein kinase ABL1 (Homo sapiens, UniProt P00519+Q13671); assay type: functional;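 also: biochemical TR-FRET dose-response test measuring inhibition of binding between Rin1 and Abl proteins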
Chain of Ras and Rab interactor 1/Tyrosine-protein kinase ABL1 (P00519 whole entry): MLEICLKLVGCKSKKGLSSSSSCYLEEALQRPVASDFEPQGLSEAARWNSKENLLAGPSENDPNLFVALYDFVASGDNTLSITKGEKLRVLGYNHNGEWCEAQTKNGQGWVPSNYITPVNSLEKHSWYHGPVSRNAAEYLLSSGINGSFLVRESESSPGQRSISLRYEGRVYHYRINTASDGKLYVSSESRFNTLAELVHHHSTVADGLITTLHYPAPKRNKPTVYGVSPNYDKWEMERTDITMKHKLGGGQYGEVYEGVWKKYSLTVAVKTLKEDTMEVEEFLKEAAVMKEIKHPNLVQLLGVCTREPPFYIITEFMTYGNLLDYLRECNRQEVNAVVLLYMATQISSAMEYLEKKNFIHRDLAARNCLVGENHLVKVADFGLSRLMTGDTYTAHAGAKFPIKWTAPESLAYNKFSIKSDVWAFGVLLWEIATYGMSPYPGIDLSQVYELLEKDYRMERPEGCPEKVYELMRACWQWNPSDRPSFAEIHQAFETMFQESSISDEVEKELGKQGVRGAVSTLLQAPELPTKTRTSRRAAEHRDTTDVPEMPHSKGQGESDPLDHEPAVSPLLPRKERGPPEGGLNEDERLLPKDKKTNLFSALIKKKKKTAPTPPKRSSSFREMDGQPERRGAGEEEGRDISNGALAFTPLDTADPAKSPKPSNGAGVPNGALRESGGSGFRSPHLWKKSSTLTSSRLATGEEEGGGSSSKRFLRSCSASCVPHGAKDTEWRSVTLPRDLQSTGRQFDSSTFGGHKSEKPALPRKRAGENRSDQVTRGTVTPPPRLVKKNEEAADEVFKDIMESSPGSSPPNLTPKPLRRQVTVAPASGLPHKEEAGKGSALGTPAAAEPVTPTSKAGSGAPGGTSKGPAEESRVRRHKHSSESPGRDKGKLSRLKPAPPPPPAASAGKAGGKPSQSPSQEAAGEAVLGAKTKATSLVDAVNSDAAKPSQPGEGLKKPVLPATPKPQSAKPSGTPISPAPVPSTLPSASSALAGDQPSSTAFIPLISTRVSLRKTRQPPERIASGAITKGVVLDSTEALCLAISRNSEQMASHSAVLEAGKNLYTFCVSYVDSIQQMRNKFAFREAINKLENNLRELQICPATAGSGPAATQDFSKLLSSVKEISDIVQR
Chain of Ras and Rab interactor 1/Tyrosine-protein kinase ABL1 (Q13671 whole entry): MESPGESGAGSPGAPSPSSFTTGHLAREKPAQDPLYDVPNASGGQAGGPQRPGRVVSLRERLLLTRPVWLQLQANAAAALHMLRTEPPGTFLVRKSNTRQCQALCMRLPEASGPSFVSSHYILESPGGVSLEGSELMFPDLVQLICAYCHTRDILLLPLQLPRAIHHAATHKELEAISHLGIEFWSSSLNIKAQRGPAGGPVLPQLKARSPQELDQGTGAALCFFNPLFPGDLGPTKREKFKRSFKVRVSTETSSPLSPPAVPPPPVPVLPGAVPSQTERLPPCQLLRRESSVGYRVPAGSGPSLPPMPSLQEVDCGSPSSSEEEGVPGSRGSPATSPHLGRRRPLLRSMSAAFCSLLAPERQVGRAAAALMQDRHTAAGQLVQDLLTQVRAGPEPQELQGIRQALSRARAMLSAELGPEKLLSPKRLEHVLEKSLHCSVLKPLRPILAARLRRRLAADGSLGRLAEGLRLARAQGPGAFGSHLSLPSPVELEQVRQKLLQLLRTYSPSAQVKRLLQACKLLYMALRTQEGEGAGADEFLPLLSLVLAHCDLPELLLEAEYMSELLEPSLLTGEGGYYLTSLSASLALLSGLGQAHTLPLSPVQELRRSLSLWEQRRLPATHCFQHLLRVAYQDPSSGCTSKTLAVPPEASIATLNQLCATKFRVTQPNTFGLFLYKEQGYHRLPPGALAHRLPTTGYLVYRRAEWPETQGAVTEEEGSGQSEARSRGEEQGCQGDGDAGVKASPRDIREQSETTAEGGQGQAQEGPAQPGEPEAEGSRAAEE

[11] = molecular target: T3, Endoribonuclease toxin MazF (Escherichia coli K-12, UniProt P0AE70); assay: fluorescent RNA oligo signal without MazF, dose response, counter-screen for MazEF activator project, biochemical, fluorescence, single-stranded RNase substrate (AID 588502); assay type: functional
T3 sequence (P0AE70 whole entry): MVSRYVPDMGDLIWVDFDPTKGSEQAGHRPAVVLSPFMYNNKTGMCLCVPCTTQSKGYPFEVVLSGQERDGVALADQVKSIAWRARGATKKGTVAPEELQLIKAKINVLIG

[12] = molecular target: T3, Endoribonuclease toxin MazF; assay: MazF toxin RNase activators, dose response, biochemical, fluorescence, single-stranded RNA substrate, uHTS hits (AID 588481); assay type: functional
[13] = test system: H4; assay: Luminescence Cell-Based Dose Response HTS to Identify Activators of 5'UTR Stem-Loop Driven Prion Protein mRNA Translation in H4 Neuroglioblastoma Cells. [Related pubchem assays: 1829 (Project Summary), 1814 (Primary HTS)]; assay type: functional; settings: Homo sapiens
[14] = Luminescence Cell-Based Dose Response HTS to Identify Activators of Luciferase Translation or Activity in H4 […] Cells. [Related pubchem assays: 1829 (Project Summary), 1814 (Primary HTS)]; assay type: functional
[15] = Luminescence Cell-Based Dose Confirmation HTS to Identify Activators of 5'UTR Stem-Loop Driven Alpha-Synuclein mRNA Translation in H4 Neuroglioblastoma Cells. [Related pubchem assays: 1829 (Project Summary), 1814 (Primary HTS)]; assay type: functional

Structure (SMILES): COc1ccc(C(=O)NC(=S)NNC(=O)c2ccc3ccccc3n2)cc1
- AC50 [1]: 41.5 µM (active)
- AC50 [2]: 26.8 µM (active)
- CC50 [3]: 10.1 µM (active)
- AC50 [4]: 13.6 µM (active)
- AC50 [5]: 1.37 µM (active)
- EC50 [6]: 3.06 µM (active)
- EC50 [7]: 28.4 µM (active)
- AC50 [8]: 4.32 µM (active)

Structure (SMILES): CC(C)N(Cc1cc2ccccc2nc1O)C(=O)C1CCCCC1
- IC50 [9]: 13.6 µM (active)

Structure (SMILES): CCOC(=O)CCCCC(=O)c1[nH]c(O)nc1C[n+]1ccc(C)cc1
- IC50 [10]: 5.77 µM (active)

Structure (SMILES): N#C/C(=C\c1cn(-c2ccccc2)nc1-c1cc2ccccc2o1)c1nc2ccccc2[nH]1
- EC50 [11]: 7.03 µM (active)
- EC50 [12]: > 99 µM (inactive)

Structure (SMILES): COc1cc(/C=C2/C(=O)N(C)C(=S)N2C)ccc1OCc1cccc(F)c1
- EC50 [11]: > 99 µM (inactive)
- EC50 [13]: 4.24 µM (active)
- EC50 [14]: > 120 µM (not active)
- EC50 [15]: > 120 µM (not active)
- EC50 [12]: > 99 µM (inactive)
